What was measured:
[1] = test system: white blood cells of kidney cancer patient; assay: Clinical case (B): chemotherapy with a platinum compound and MEK, white blood cells analyzed by cell sorter; format: in vivo, human; conditions: A person; for Total T (CD3+), Percent: kidney cancer, normal 59.4-84.6; for Total T (CD3+), Percent / T Helper (CD3+, CD4+), Cell Number/μl / T Suppressor (CD3+, CD8+), Cell Number/μl / Total B (CD19+), Cell Number/μl / Total NK (CD16+/CD56+), Cell Number/μl / Total T (CD3+), Cell Number/μl / Ratio T Helper Cells/ CD3, CD4/CD3, CD8 / Total NK (CD16+/CD56+), Percent / Total B (CD19+), Percent / T Suppressor (CD3+, CD8+), Percent / T Helper (CD3+, CD4+), Percent / Lymphocytes T + B + NK, Percent: platinum compound + MEK; for Ratio T Helper Cells/ CD3, CD4/CD3, CD8: normal 0.9-3.6; for Total NK (CD16+/CD56+), Percent: normal 5.6-40.9; for Total B (CD19+), Percent: normal 6.4-22.6; for T Suppressor (CD3+, CD8+), Percent: normal 11.1-38.3; for T Helper (CD3+, CD4+), Percent: normal 28.5-60.5; for Lymphocytes T + B + NK, Percent: normal 95.0-105.0
Experimental: (B) A patient was diagnosed with a kidney cancer and was treated with chemotherapy with a platinum compound and MEK for about two months (July and August 2005). […] a person's white blood cells after analyzed by the cell sorter are presented as follows: […]

patients' immune cells = assay: Clinical (C): MEK therapy in a group of 19 cancer patients, analysis of patients' immune cells (FACS Calibur); format: in vivo, human; conditions: for Total NK (CD16+CD56) Natural killer cells, Cells/μl / Total T Cells, Cells/μl / CD4/CD3(CD8) / Total NK (CD16+CD56) Natural killer cells, in percent of total / Total T Cells, in percent of total / Total Lymphocytes (T+B+NK), in percent of total: average of 19 patients; for Total NK (CD16+CD56) Natural killer cells, Cells/μl / Total T Cells, in percent of total: before MEK 61; for Total T Cells, Cells/μl: before MEK 367; for CD4/CD3(CD8): normal 0.9-3.6, before MEK 0.61; for Total NK (CD16+CD56) Natural killer cells, in percent of total: normal 5.6-30.9, before MEK 16; for Total T Cells, in percent of total: normal range 59.5-84.6; for Total Lymphocytes (T+B+NK), in percent of total: normal range 95.0-105.0, before MEK 87
Experimental: (C) Therapy in group of patients: (1) Total patient number: 19 (2) Cancer category: colon cancer—8; ovary cancer—5; lung cancer—4; salivary gland cancer—1; stomach cancer—1. 12 patients were given MEK 3 weeks after chemotherapy; the other 7 patients were not treated with chemotherapy. (3) Schedule of MEK administration: First week—10˜30 μg/kg, daily IV (total 7 administrations per week); Second week—20˜40 μg/kg, ever other day IV (total 3 administrations per week); Third week—30˜50 μg/kg, once every three days, IV (total 2 administrations per week). (4) Thereafter, one administration each month, 100˜130 μg/kg for 6 months. (5) Observation Indicator: analysis of patients' immune cells. (6) Equipment used: Cytometer—FACS Calibur; Software—Simul Set V3.1. (7) Results (in average values):
In the above data, “after MEK” refers to after the end of MEK treatment.

[2] = test system: patient with metastasized cancer of the "small saliva gland"
Experimental: (A) A patient of was a physician in the radiation department. They were diagnosed to have cancer of the “small saliva gland” in 1996. After radiation therapy, the tumor was removed by surgery. In 2001 it was discovered that the tumor had metastasized to their left lung and they went through a second surgery in the lung. In December of 2004, the metastasis extended into the chest, diaphragm and bone and multiple sites in the lung. They were treated with regional radiation and “immuno-therapy”. Starting in the middle of December, they were given MEK intravenously (IV) at a dose of 30 μg/kg bodyweight three times per week for one month. In the next month, they were given one administration of MEK each week at 40 μg/kg. Thereafter, one injection was done for each month at 120 μg/kg for the next 5 months.

Substance: Methionine enkephalin [MEK]
- Total T (CD3+), Percent ([1]; Aug 12): 74%
- Total T (CD3+), Percent ([1]; Jul 14): 70%
- T Helper (CD3+, CD4+), Cell Number/μl ([1]; Aug 12): 447 Cell Number/μl
- T Suppressor (CD3+, CD8+), Cell Number/μl ([1]; Aug 12): 931 Cell Number/μl
- Total B (CD19+), Cell Number/μl ([1]; Aug 12): 74 Cell Number/μl
- Total NK (CD16+/CD56+), Cell Number/μl ([1]; Aug 12): 447 Cell Number/μl
- Total T (CD3+), Cell Number/μl ([1]; Aug 12): 1368 Cell Number/μl
- Ratio T Helper Cells/ CD3, CD4/CD3, CD8 ([1]; Aug 12): 0.48
- Total NK (CD16+/CD56+), Percent ([1]; Aug 12): 24%
- Total B (CD19+), Percent ([1]; Aug 12): 4%
- T Suppressor (CD3+, CD8+), Percent ([1]; Aug 12): 50%
- T Helper (CD3+, CD4+), Percent ([1]; Aug 12): 24%
- Lymphocytes T + B + NK, Percent ([1]; Aug 12): 102%
- T Helper (CD3+, CD4+), Cell Number/μl ([1]; Jul 14): 569 Cell Number/μl
- T Suppressor (CD3+, CD8+), Cell Number/μl ([1]; Jul 14): 1274 Cell Number/μl
- Total B (CD19+), Cell Number/μl ([1]; Jul 14): 54 Cell Number/μl
- Total NK (CD16+/CD56+), Cell Number/μl ([1]; Jul 14): 759 Cell Number/μl
- Total T (CD3+), Cell Number/μl ([1]; Jul 14): 1897 Cell Number/μl
- Ratio T Helper Cells/ CD3, CD4/CD3, CD8 ([1]; Jul 14): 0.45
- Total NK (CD16+/CD56+), Percent ([1]; Jul 14): 28%
- Total B (CD19+), Percent ([1]; Jul 14): 2%
- T Suppressor (CD3+, CD8+), Percent ([1]; Jul 14): 47%
- T Helper (CD3+, CD4+), Percent ([1]; Jul 14): 21%
- Lymphocytes T + B + NK, Percent ([1]; Jul 14): 100%
- Numbers of T cell sub-types ([1]; platinum compound and MEK for about two months): did not decrease but increased instead
- side effects among the patients treated (patients' immune cells; MEK as supplemental agent with chemo and/or radiation therapies): helped to eliminate or reduce the extent of many side effects
- Total NK (CD16+CD56) Natural killer cells, Cells/μl (patients' immune cells; 1 month after MEK): 177 Cells/μl
- Total T Cells, Cells/μl (patients' immune cells; 1 month after MEK): 655 Cells/μl
- CD4/CD3(CD8) (patients' immune cells; 1 month after MEK): 0
- Total NK (CD16+CD56) Natural killer cells, in percent of total (patients' immune cells; 1 month after MEK): 22% of total
- Total T Cells, in percent of total (patients' immune cells; 1 month after MEK): 60% of total
- Total Lymphocytes (T+B+NK), in percent of total (patients' immune cells; 1 month after MEK): 102% of total
- Total NK (CD16+CD56) Natural killer cells, Cells/μl (patients' immune cells; 2 months after MEK): 189 Cells/μl
- Total T Cells, Cells/μl (patients' immune cells; 2 months after MEK): 587 Cells/μl
- CD4/CD3(CD8) (patients' immune cells; 2 months after MEK): 1.62
- Total NK (CD16+CD56) Natural killer cells, in percent of total (patients' immune cells; 2 months after MEK): 21% of total
- Total T Cells, in percent of total (patients' immune cells; 2 months after MEK): 66% of total
- Total Lymphocytes (T+B+NK), in percent of total (patients' immune cells; 2 months after MEK): 100% of total
- Total NK (CD16+CD56) Natural killer cells, Cells/μl (patients' immune cells; 3 months after MEK): 306 Cells/μl
- Total T Cells, Cells/μl (patients' immune cells; 3 months after MEK): 539 Cells/μl
- CD4/CD3(CD8) (patients' immune cells; 3 months after MEK): 1.51
- Total NK (CD16+CD56) Natural killer cells, in percent of total (patients' immune cells; 3 months after MEK): 29% of total
- Total T Cells, in percent of total (patients' immune cells; 3 months after MEK): 67% of total
- Total Lymphocytes (T+B+NK), in percent of total (patients' immune cells; 3 months after MEK): 104% of total
- Total NK (CD16+CD56) Natural killer cells, Cells/μl (patients' immune cells; 4 months after MEK): 349 Cells/μl
- Total T Cells, Cells/μl (patients' immune cells; 4 months after MEK): 694 Cells/μl
- CD4/CD3(CD8) (patients' immune cells; 4 months after MEK): 1.53
- Total NK (CD16+CD56) Natural killer cells, in percent of total (patients' immune cells; 4 months after MEK): 26% of total
- Total T Cells, in percent of total (patients' immune cells; 4 months after MEK): 79% of total
- Total Lymphocytes (T+B+NK), in percent of total (patients' immune cells; 4 months after MEK): 103% of total
- Total NK (CD16+CD56) Natural killer cells, Cells/μl (patients' immune cells; 5 months after MEK): 368 Cells/μl
- Total T Cells, Cells/μl (patients' immune cells; 5 months after MEK): 637 Cells/μl
- CD4/CD3(CD8) (patients' immune cells; 5 months after MEK): 1.80
- Total NK (CD16+CD56) Natural killer cells, in percent of total (patients' immune cells; 5 months after MEK): 25% of total
- Total T Cells, in percent of total (patients' immune cells; 5 months after MEK): 73% of total
- Total Lymphocytes (T+B+NK), in percent of total (patients' immune cells; 5 months after MEK): 102% of total
- Total NK (CD16+CD56) Natural killer cells, Cells/μl (patients' immune cells; 6 months after MEK): 359 Cells/μl
- Total T Cells, Cells/μl (patients' immune cells; 6 months after MEK): 568 Cells/μl
- CD4/CD3(CD8) (patients' immune cells; 6 months after MEK): 1.61
- Total NK (CD16+CD56) Natural killer cells, in percent of total (patients' immune cells; 6 months after MEK): 27% of total
- Total T Cells, in percent of total (patients' immune cells; 6 months after MEK): 80% of total
- Total Lymphocytes (T+B+NK), in percent of total (patients' immune cells; 6 months after MEK): 103% of total
- CD4/CD3(CD8), NK (CD16+CD56), and total T cells (patients' immune cells; cancer patients, MEK in conjunction with chemo and/or radiation therapies, after one month of MEK administration): either were maintained normally or increased
- progress of the tumor ([2]; CT and MRI examination): slowed and partially disappeared
- appetite and sleep ([2]; after the therapy): improved
- blood pressure, pulse and liver and stomach functions ([2]; after the therapy): normal
- influenza infection ([2]; during the influenza epidemic, hospital ward): not infected
- side effects in the GI, respiratory, skin, and peripheral circulation systems ([2]; during therapy with radiation, chemo, and MEK): no side effects
- white blood cell counts and lymphocytes ([2]; during therapy with radiation, chemo, and MEK, MEK IV 30-120 μg/kg): decreased to some extent
- CD3/CD4 sub-group of T lymphocytes ([2]; monitored monthly): increased
- CD3/CD8 and total CD3 subgroups ([2]; monitored monthly): decreased
- total numbers of NK cells ([2]; monitored monthly): increased
